Key:
Conditions in all cases: 48 h
[1] = tested on: NOMO1; test: AUC of viability dose-response curve (% viability x log10 dose units); higher = less sensitive
Method in brief: (§1)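 Area under the curve was integrated by trapezoidal rule from a log-logistic fit of normalised viability, with curves exceeding full viability scaled and quality-control failures removed. The fit had four parameters over log10 doses. Viability came from CellTiter-Glo One luminescence, normalised per plate to DMSO and cell-free wells, after leukemia cells adapted to each medium (500 or 1000 cells/well, 1536-well plates) were exposed to library compounds in DMSO for 48 h at 37°C. The 11 threefold doses ran from 47 μM to 0.79 nM.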

[2] = tested on: SEM cells; test: as above
Method in brief: as §1

[3] = tested on: P12-Ichikawa; test: as above
Method in brief: as §1

[4] = tested on: NOMO1; test: cell viability relative to DMSO control; higher = less cytotoxic
Method in brief: (§2)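 NOMO1 or SEM (500 cells/well) or P12-Ichikawa (1000 cells/well) leukemia cells were adapted for at least four passages in each medium. They were seeded in 1536-well plates (5 μl) and pin-dosed with library compounds in DMSO over an 11-point threefold series, 47 μM to 0.79 nM. CellTiter-Glo One luminescence was read after 48 h at 37°C. Viability is the per-plate percentage relative to DMSO wells, with cell-free wells as background.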

[5] = tested on: SEM cells; test: as above
Method in brief: as §2

[6] = tested on: P12-Ichikawa; test: as above
Method in brief: as §2

N#Cc1ccnc(Nc2cc(C3CCN(C4COC4)CC3)cc(N3CCC(F)(F)C3)n2)c1
AUC of viability dose-response curve
Conditions	[1]	[2]	[3]
HPLM + 10% dialyzed FBS	430	424	455
RPMI 5 mM glucose + 10% FBS	429	415	441
RPMI 5 mM glucose + 10% dialyzed FBS	426	408	439

cell viability [%]
Conditions	[4]	[5]	[6]
HPLM + 10% dialyzed FBS, 0.000781 µM	121	96.4	97.8
HPLM + 10% dialyzed FBS, 0.00234 µM	109	97.9	99.8
HPLM + 10% dialyzed FBS, 0.00702 µM	119	91.6	104
HPLM + 10% dialyzed FBS, 0.0211 µM	114	110	105
HPLM + 10% dialyzed FBS, 0.0632 µM	103	110	99.5
HPLM + 10% dialyzed FBS, 0.19 µM	110	104	104
HPLM + 10% dialyzed FBS, 0.569 µM	114	109	100
HPLM + 10% dialyzed FBS, 1.71 µM	124	103	108
HPLM + 10% dialyzed FBS, 5.12 µM	127	102	107
HPLM + 10% dialyzed FBS, 15.4 µM	53.2	35.3	88.2
HPLM + 10% dialyzed FBS, 46.1 µM	10.6	10.2	36.1
RPMI 5 mM glucose + 10% FBS, 0.000781 µM	101	107	105
RPMI 5 mM glucose + 10% FBS, 0.00234 µM	99.7	127	104
RPMI 5 mM glucose + 10% FBS, 0.00702 µM	106	125	101
RPMI 5 mM glucose + 10% FBS, 0.0211 µM	106	128	101
RPMI 5 mM glucose + 10% FBS, 0.0632 µM	93.6	123	102
RPMI 5 mM glucose + 10% FBS, 0.19 µM	108	110	99.7
RPMI 5 mM glucose + 10% FBS, 0.569 µM	105	131	108
RPMI 5 mM glucose + 10% FBS, 1.71 µM	102	112	115
RPMI 5 mM glucose + 10% FBS, 5.12 µM	107	100	108
RPMI 5 mM glucose + 10% FBS, 15.4 µM	44.7	43.7	62.8
RPMI 5 mM glucose + 10% FBS, 46.1 µM	11.3	8.66	32.2
RPMI 5 mM glucose + 10% dialyzed FBS, 0.000781 µM	108	103	108
RPMI 5 mM glucose + 10% dialyzed FBS, 0.00234 µM	91.6	110	104
RPMI 5 mM glucose + 10% dialyzed FBS, 0.00702 µM	110	97.8	101
RPMI 5 mM glucose + 10% dialyzed FBS, 0.0211 µM	102	111	103
RPMI 5 mM glucose + 10% dialyzed FBS, 0.0632 µM	96.2	121	109
RPMI 5 mM glucose + 10% dialyzed FBS, 0.19 µM	107	101	104
RPMI 5 mM glucose + 10% dialyzed FBS, 0.569 µM	98.7	110	106
RPMI 5 mM glucose + 10% dialyzed FBS, 1.71 µM	108	106	108
RPMI 5 mM glucose + 10% dialyzed FBS, 5.12 µM	107	85.5	111
RPMI 5 mM glucose + 10% dialyzed FBS, 15.4 µM	39.1	25.5	56.8
RPMI 5 mM glucose + 10% dialyzed FBS, 46.1 µM	9.87	9.03	36.8

Cc1ccc([S+](=O)([O-])Nc2nc3ccccc3nc2Nc2ccc3nsnc3c2)cc1
AUC of viability dose-response curve
Conditions	[1]	[2]	[3]
HPLM + 10% dialyzed FBS	361	410	422
RPMI 5 mM glucose + 10% FBS	360	440	405
RPMI 5 mM glucose + 10% dialyzed FBS	365	409	438

cell viability [%]
Conditions	[4]	[5]	[6]
HPLM + 10% dialyzed FBS, 0.000781 µM	97.3	81.7	105
HPLM + 10% dialyzed FBS, 0.00234 µM	106	90.3	110
HPLM + 10% dialyzed FBS, 0.00702 µM	114	99.9	111
HPLM + 10% dialyzed FBS, 0.0211 µM	104	88.2	110
HPLM + 10% dialyzed FBS, 0.0632 µM	116	92.6	115
HPLM + 10% dialyzed FBS, 0.19 µM	110	93.5	116
HPLM + 10% dialyzed FBS, 0.569 µM	111	87.8	109
HPLM + 10% dialyzed FBS, 1.71 µM	72.5	90.5	112
HPLM + 10% dialyzed FBS, 5.12 µM	21.3	78.6	106
HPLM + 10% dialyzed FBS, 15.4 µM	18	73.5	36.3
HPLM + 10% dialyzed FBS, 46.1 µM	13.1	59.1	13.3
RPMI 5 mM glucose + 10% FBS, 0.000781 µM	89.2	102	93.4
RPMI 5 mM glucose + 10% FBS, 0.00234 µM	94.4	100	114
RPMI 5 mM glucose + 10% FBS, 0.00702 µM	89.2	102	104
RPMI 5 mM glucose + 10% FBS, 0.0211 µM	108	112	116
RPMI 5 mM glucose + 10% FBS, 0.0632 µM	101	107	103
RPMI 5 mM glucose + 10% FBS, 0.19 µM	119	101	113
RPMI 5 mM glucose + 10% FBS, 0.569 µM	96.7	97.8	110
RPMI 5 mM glucose + 10% FBS, 1.71 µM	78.5	105	103
RPMI 5 mM glucose + 10% FBS, 5.12 µM	14	78.7	77.5
RPMI 5 mM glucose + 10% FBS, 15.4 µM	11.5	81.3	28.5
RPMI 5 mM glucose + 10% FBS, 46.1 µM	7.49	54.9	12.4
RPMI 5 mM glucose + 10% dialyzed FBS, 0.000781 µM	84.8	95	92
RPMI 5 mM glucose + 10% dialyzed FBS, 0.00234 µM	88.7	87.9	107
RPMI 5 mM glucose + 10% dialyzed FBS, 0.00702 µM	106	84.8	112
RPMI 5 mM glucose + 10% dialyzed FBS, 0.0211 µM	91.8	96	116
RPMI 5 mM glucose + 10% dialyzed FBS, 0.0632 µM	111	88.2	112
RPMI 5 mM glucose + 10% dialyzed FBS, 0.19 µM	99.2	84.4	104
RPMI 5 mM glucose + 10% dialyzed FBS, 0.569 µM	92.8	89.7	101
RPMI 5 mM glucose + 10% dialyzed FBS, 1.71 µM	96.1	96.4	112
RPMI 5 mM glucose + 10% dialyzed FBS, 5.12 µM	20.7	83.2	92.1
RPMI 5 mM glucose + 10% dialyzed FBS, 15.4 µM	15.9	61.8	74.1
RPMI 5 mM glucose + 10% dialyzed FBS, 46.1 µM	12.7	65.8	30.4

C[C@@H](NC(=O)c1ncnc(N)c1Cl)c1ncc(C(=O)Nc2cc(C(F)(F)F)c(Cl)cn2)s1
AUC of viability dose-response curve
Conditions	[1]	[2]	[3]
HPLM + 10% dialyzed FBS	451	470	461
RPMI 5 mM glucose + 10% FBS	460	467	449
RPMI 5 mM glucose + 10% dialyzed FBS	453	467	448

Conditions	cell viability [%]
[4], RPMI 5 mM glucose + 10% FBS, 0.000781 µM	99.4
[4], RPMI 5 mM glucose + 10% FBS, 0.00234 µM	124
[4], RPMI 5 mM glucose + 10% FBS, 0.00702 µM	124
[4], RPMI 5 mM glucose + 10% FBS, 0.0211 µM	121
[4], RPMI 5 mM glucose + 10% FBS, 0.0632 µM	125
[4], RPMI 5 mM glucose + 10% FBS, 0.19 µM	122
[4], RPMI 5 mM glucose + 10% FBS, 0.569 µM	138
[4], RPMI 5 mM glucose + 10% FBS, 1.71 µM	127
[4], RPMI 5 mM glucose + 10% FBS, 5.12 µM	114
[4], RPMI 5 mM glucose + 10% FBS, 15.4 µM	103
[4], RPMI 5 mM glucose + 10% FBS, 46.1 µM	88.3
[5], RPMI 5 mM glucose + 10% FBS, 0.000781 µM	113
[5], RPMI 5 mM glucose + 10% FBS, 0.00234 µM	119
[5], RPMI 5 mM glucose + 10% FBS, 0.00702 µM	105
[5], RPMI 5 mM glucose + 10% FBS, 0.0211 µM	127
[5], RPMI 5 mM glucose + 10% FBS, 0.0632 µM	125
[5], RPMI 5 mM glucose + 10% FBS, 0.19 µM	126
[5], RPMI 5 mM glucose + 10% FBS, 0.569 µM	127
[5], RPMI 5 mM glucose + 10% FBS, 1.71 µM	121
[5], RPMI 5 mM glucose + 10% FBS, 5.12 µM	121
[5], RPMI 5 mM glucose + 10% FBS, 15.4 µM	112
[5], RPMI 5 mM glucose + 10% FBS, 46.1 µM	106
[5], RPMI 5 mM glucose + 10% dialyzed FBS, 0.000781 µM	123
[5], RPMI 5 mM glucose + 10% dialyzed FBS, 0.00234 µM	128
[5], RPMI 5 mM glucose + 10% dialyzed FBS, 0.00702 µM	112
[5], RPMI 5 mM glucose + 10% dialyzed FBS, 0.0211 µM	126
[5], RPMI 5 mM glucose + 10% dialyzed FBS, 0.0632 µM	139
[5], RPMI 5 mM glucose + 10% dialyzed FBS, 0.19 µM	134
[5], RPMI 5 mM glucose + 10% dialyzed FBS, 0.569 µM	135
[5], RPMI 5 mM glucose + 10% dialyzed FBS, 1.71 µM	137
[5], RPMI 5 mM glucose + 10% dialyzed FBS, 5.12 µM	131
[5], RPMI 5 mM glucose + 10% dialyzed FBS, 15.4 µM	119
[5], RPMI 5 mM glucose + 10% dialyzed FBS, 46.1 µM	96.2
[6], HPLM + 10% dialyzed FBS, 0.000781 µM	124
[6], HPLM + 10% dialyzed FBS, 0.00234 µM	119
[6], HPLM + 10% dialyzed FBS, 0.00702 µM	121
[6], HPLM + 10% dialyzed FBS, 0.0211 µM	123
[6], HPLM + 10% dialyzed FBS, 0.0632 µM	120
[6], HPLM + 10% dialyzed FBS, 0.19 µM	122
[6], HPLM + 10% dialyzed FBS, 0.569 µM	116
[6], HPLM + 10% dialyzed FBS, 1.71 µM	115
[6], HPLM + 10% dialyzed FBS, 5.12 µM	116
[6], HPLM + 10% dialyzed FBS, 15.4 µM	104
[6], HPLM + 10% dialyzed FBS, 46.1 µM	92.7
